These results are taken from US9340577B2, “HLA binding motifs and peptides and their uses” (priority 1992, dated 2016).

Common to all, as to experiment: biochemical
What all share (type): binding

Assay [1] has as its target A*3002 (Homo sapiens, UniProt P04439, D101N/D140H/D185E/E176R/F33S/G80R/H175R/K168Q/Q94H/R138E/R41S/V100E).
For assay [2], the target named is A*2601 (Homo sapiens, UniProt P04439, A114D/A173T/A270S/D101N/D185E/E277Q/E87N/F33Y/G231S/I121R/I218V/K168Q/L180W/L300P/L318F/P208A/P217A/Q86R/Q94H/R138Q/S129P/T187R/T323A/T345S/V100A/V358M).
The target of assay [3] is A*2902 (Homo sapiens, UniProt P04439, A270S/D101N/D185E/E176V/E277Q/E87Q/F33T/G231S/H175R/I121M/I218V/I322F/K168Q/L300P/L318F/M331R/P208A/P217A/Q86L/T323A/T345S/V100A/V358M).
In assay [4] the target is HLA-A1 (A*0101) (Homo sapiens, UniProt P04439, A114D/A174V/A182V/D101N/D185E/E176A/E190D/L180R/Q94H/R68K/S129P/T187R/V100A/V91M/W191G).
Assay [5] concerns the target A*6801 (Homo sapiens, UniProt P04439, A269V/D185E/E176V/E277Q/E87N/F33Y/G231S/I121M/I166T/I218V/L180W/L300P/L318F/N151K/P208A/P217A/Q86R/R169H/T345S).
Assay [6] concerns the target HLA-A11 (A*1101) (Homo sapiens, UniProt P04439, A114D/D185E/E176A/F33Y/L180Q/S129P/T187R).
Assay [7] addresses A*3301 (Homo sapiens, UniProt P04439, A270S/D185E/E176V/E277Q/E87N/F33T/G231S/H175R/I121M/I218V/I322F/K168Q/K210R/L300P/L318F/M331R/P217A/Q86R/Q94H/R138Q/T323A/T345S/T97I/V358M/Y195H).
The target of assay [8] is A31 (A*3101) (Homo sapiens, UniProt P04439, A270S/D185E/E176V/E277Q/F33T/G231S/G80R/H175R/I121M/I218V/I322F/K168Q/L300P/L318F/M331R/P217A/Q94H/R138Q/T323A/T345S/T97I/V358M).

No end group written: not given here.

A*3002, sequence (P04439 whole entry, looked up, the tested form may be a part, stated change not applied): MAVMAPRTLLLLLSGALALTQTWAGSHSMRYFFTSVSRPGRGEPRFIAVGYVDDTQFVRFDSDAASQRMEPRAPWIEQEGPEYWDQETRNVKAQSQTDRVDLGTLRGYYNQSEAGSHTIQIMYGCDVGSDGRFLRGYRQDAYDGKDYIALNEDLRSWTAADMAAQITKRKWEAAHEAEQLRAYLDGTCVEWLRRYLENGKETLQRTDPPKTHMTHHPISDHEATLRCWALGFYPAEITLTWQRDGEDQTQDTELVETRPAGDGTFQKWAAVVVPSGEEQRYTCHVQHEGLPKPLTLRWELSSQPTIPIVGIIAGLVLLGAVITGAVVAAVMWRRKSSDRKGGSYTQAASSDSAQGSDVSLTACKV

The term IC50 denotes the concentration needed to halve the response being measured. A higher IC50 goes with weaker potency in that assay. On to LTDDSDIAY [Peptide 1580.11], for which the results for the IC50 in assay [1], in assay [2] and in assay [3] were 5440 nM, 3920 nM and 4770 nM, respectively.
For HTAREKHPEY [Peptide 9018.0006], the IC50 in assay [2] came to 15 nM; in assay [3], 4460 nM.
Take SIDWRQRRY [Peptide 9018.0018]: the IC50 is 3.5 nM in assay [1], 236 nM in assay [2], 561 nM in assay [3] and 43 nM in assay [4].
For the compound LSDLQDSGY [Peptide 1580.15], the concentration for half-maximal inhibition (IC50) was 4030 nM in assay [1], above 20000 nM in assay [2], above 20000 nM in assay [3] and 1.7 nM in assay [4].
Consider VTIEWRLRRY [Peptide 9018.0015], for which the IC50 in assay [1] was determined as 3.5 nM; in assay [2] it was 33 nM; in assay [3], 123 nM; in assay [4], 19 nM.
In the case of GTEELRSLY [Peptide 9015.0010], the IC50 in assay [1] stood at 51 nM; in assay [2], 666 nM; in assay [3], 4830 nM.
As to RTKNPEIVIY [Peptide 9015.0164], the IC50 is 12 nM in assay [1], above 20000 nM in assay [2], above 20000 nM in assay [3] and above 20000 nM in assay [4].
Consider QTDYYGLYY [Peptide 1593.06], for which the IC50 in assay [1] is 674 nM; in assay [2], 122 nM; in assay [3] it was 38 nM; in assay [4], 1.3 nM.
As to `CC(C)C[C@H](NC(=O)[C@H](CO)NC(=O)[C@@H](N)CCCNC(=N)N)C(=O)N[C@@H](Cc1ccc(O)cc1)C(=O)N[C@@H](CC(N)=O)C(=O)N[C@H](C(=O)N[C@H](C(=O)N[C@@H](C)C(=O)N[C@H](C(=O)N[C@@H](CC(C)C)C(=O)N[C@@H](Cc1ccc(O)cc1)C(=O)O)[C@@H](C)O)C(C)C)[C@@H](C)O` [Peptide 1595.06], the IC50 in assay [5] is above 20 µM; in assay [1] it was 1.2 nM; in assay [3] it was 750 nM; in assay [6], 148 nM; in assay [7] it was above 20 µM; in assay [8], 9.27 µM. In assay [4], half-maximal inhibition (IC50) required 221 nM.
Turning to LMWKFDSSL [Peptide 1605.16], the IC50 was 348 nM in assay [1], above 20000 nM in assay [2], 2050 nM in assay [3] and above 20000 nM in assay [4].
Take IVDDSEIAY [Peptide 1580.04]: the IC50 is 2030 nM in assay [1] and above 20000 nM in assay [2].
With HTARELHPEY [Peptide 9018.0004], the IC50 in assay [1] was 9.2 nM; in assay [2], 12 nM; in assay [4] it was 8 nM.
On to SSNLQGKLY [Peptide 86.0139], for which the values for the IC50 in assay [1], in assay [3] and in assay [4] were 62 nM, 15900 nM and 3030 nM, respectively.
As to GTADQLIHLY [Peptide 9018.0023], the IC50 in assay [1] is 2 nM; in assay [2], 68 nM; in assay [4], 26 nM.
On to ISERILSTY [Peptide 1522.03], for which the values for the IC50 in assay [2], in assay [3] and in assay [4] were 4100 nM, above 20000 nM and 31 nM, respectively.
Regarding LFDQLIHMHY [Peptide 9018.0033], the IC50 in assay [1] came to 47 nM; in assay [3] it was 280 nM; in assay [4], 4070 nM.
In the same order, the values of LFDQLIHLY [Peptide 9018.0027] are 10 nM, 45 nM and 83 nM.
In the same order, the values of VSIEWRKRRY [Peptide 9015.0183] are 231 nM, above 20000 nM and above 20000 nM.
RQEILDLWVY [Peptide 9015.0174]: the figures for the IC50 in assay [1], in assay [2] and in assay [4] were 76 nM, 8720 nM and 7250 nM, respectively.
NYLVKHHMY [Peptide 9018.0037]: the IC50 in assay [1] came out at 12 nM; in assay [3], 63 nM; in assay [4], 305 nM.
For the compound LFDQLIHMYY [Peptide 9018.0030], the figures for the IC50 in assay [1], in assay [2] and in assay [3] were 65 nM, 2410 nM and 12 nM, respectively.
Take LADQLIHMYY [Peptide 9015.0187]: the IC50 in assay [1] is 769 nM; in assay [2], 1780 nM; in assay [4], 2.5 nM.
YTPGPGVRY [Peptide 9015.0026]: the results for the IC50 in assay [1], in assay [2] and in assay [3] were 7640 nM, 27 nM and 1350 nM, respectively.
As to FSITNWLWY [Peptide 9015.0008], the IC50 was found to be 870 nM in assay [1], 37 nM in assay [3] and 74 nM in assay [4].
Take SYEWRLRRY [Peptide 9018.0036]: the concentration for half-maximal inhibition (IC50) in assay [1] was 58 nM; in assay [2], 3220 nM; in assay [4] it was 3700 nM.
On the same counts, the results for VTDDSEIAY [Peptide 1593.13] are 10100 nM, above 20000 nM and 22 nM.
On the same counts, the results for STEWRQRRY [Peptide 9018.0017] are 19 nM, 371 nM and 7.1 nM.
In the case of LSQMVQWAY [Peptide 1580.03], the IC50 was determined as 1.8 nM in assay [1], 124 nM in assay [3] and 25 nM in assay [4].
Turning to VTTIVYIEY [Peptide 9018.0041], the IC50 amounted to 92 nM in assay [1], 448 nM in assay [2] and 3.6 nM in assay [4].
In the case of GLADQLIHLY [Peptide 9015.0185], the figures for the IC50 in assay [1], in assay [2] and in assay [4] were 9.2 nM, 426 nM and 5520 nM, respectively.
Take VWTIVYIEY [Peptide 9015.0089]: the IC50 in assay [2] is above 20000 nM; in assay [4], 6980 nM.
Turning to LTDQLIHMYY [Peptide 9018.0029], the concentration for half-maximal inhibition (IC50) in assay [1] came to 197 nM; in assay [2], 3210 nM; in assay [4] it was 6.3 nM.
LSEMVQWAY [Peptide 1580.10]: the IC50 in assay [2] was above 20000 nM; in assay [3] it was 633 nM; in assay [4] it was 6.9 nM.
On to QTKGLGISY [Peptide 9015.0031], for which the IC50 in assay [1] was 715 nM; in assay [3], above 20000 nM; in assay [4], above 20000 nM.
For the compound VSRRANGWFY [Peptide 9015.0179], the results for the IC50 in assay [1], in assay [2] and in assay [3] were 5.2 nM, above 20000 nM and 5580 nM, respectively.
WFDITNWLWY [Peptide 9015.0161]: the figures for the IC50 in assay [1], in assay [3] and in assay [4] were 1660 nM, 150 nM and 986 nM, respectively.
Consider KSDIVTLTY [Peptide 1593.07], for which the half-maximal inhibitory concentration (IC50) in assay [2] is above 20000 nM; in assay [3], 3170 nM; in assay [4], 62 nM.
As for HMARELHPEY [Peptide 9015.0176], the IC50 in assay [1] worked out at 33 nM; in assay [2] it was 1570 nM; in assay [4] it was 618 nM.
In the case of SFDPIPIHY [Peptide 9015.0002], the IC50 in assay [2] came out at 2650 nM; in assay [3], 27 nM; in assay [4], 315 nM.
Consider ITKIGPENPY [Peptide 9015.0162], for which the IC50 in assay [2] is 985 nM; in assay [3], above 20000 nM.
Turning to SSNTKANILY [Peptide 1580.08], the IC50 in assay [1] was found to be 33 nM; in assay [2], 579 nM; in assay [4], 290 nM.
As to VTRRANGWFY [Peptide 9018.0011], the values for the IC50 in assay [1], in assay [3] and in assay [4] were 0.71 nM, 905 nM and 25 nM, respectively.
Consider ISWTYIDDY [Peptide 86.0135], for which the IC50 in assay [1] was 9.4 nM; in assay [2], above 20000 nM; in assay [3], 2490 nM.
Turning to MSDSQWIKY [Peptide 1593.05], the IC50 is 434 nM in assay [1], 839 nM in assay [3] and 10 nM in assay [4].
In the same order, the values of NTDKSLVKY [Peptide 9018.0008] are 3010 nM, 5430 nM and 7.3 nM.
For YTPGPGTRY [Peptide 9015.0027], the IC50 in assay [1] is 9150 nM; in assay [2], 11 nM; in assay [3], 1280 nM.
Take VMDDSEIAY [Peptide 1580.07]: the values for the IC50 in assay [1], in assay [2] and in assay [3] were 2550 nM, above 20000 nM and 95 nM, respectively.
As for DLADQLIHLY [Peptide 9015.0184], the results for the IC50 in assay [2], in assay [3] and in assay [4] were 6.2 nM, 9790 nM and 958 nM, respectively.
In the same order, the values of MWKFDSRLAL [Peptide 1605.17] are above 20000 nM, above 20000 nM and above 20000 nM.
